Structures are written as SMILES.

Sequence of TLR2 (O60603 21-784): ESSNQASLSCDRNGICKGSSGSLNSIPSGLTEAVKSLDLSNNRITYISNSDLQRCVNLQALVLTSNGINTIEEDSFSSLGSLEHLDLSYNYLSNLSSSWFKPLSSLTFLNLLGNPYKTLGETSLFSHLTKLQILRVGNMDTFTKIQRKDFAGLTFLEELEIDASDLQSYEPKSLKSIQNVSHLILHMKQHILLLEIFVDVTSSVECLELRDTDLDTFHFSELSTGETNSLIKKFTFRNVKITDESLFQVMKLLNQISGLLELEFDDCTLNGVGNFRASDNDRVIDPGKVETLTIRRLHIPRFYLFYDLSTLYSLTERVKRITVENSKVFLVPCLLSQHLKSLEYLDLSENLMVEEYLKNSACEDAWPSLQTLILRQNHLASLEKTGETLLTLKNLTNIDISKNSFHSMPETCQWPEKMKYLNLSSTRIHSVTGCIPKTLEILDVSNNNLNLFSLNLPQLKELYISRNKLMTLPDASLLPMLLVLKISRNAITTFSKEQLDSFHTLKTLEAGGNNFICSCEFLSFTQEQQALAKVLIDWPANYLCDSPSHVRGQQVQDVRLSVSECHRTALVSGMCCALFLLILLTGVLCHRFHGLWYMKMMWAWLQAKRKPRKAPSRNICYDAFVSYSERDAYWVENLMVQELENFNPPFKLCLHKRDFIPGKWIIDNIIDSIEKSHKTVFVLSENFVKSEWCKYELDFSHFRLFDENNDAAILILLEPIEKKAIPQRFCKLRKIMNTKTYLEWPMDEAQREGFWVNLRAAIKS

This assay has as its target TLR2 (Homo sapiens, UniProt O60603). Nature of the assay: TLR2 agonist screening assay, HEK-Blue TLR2 reporter cell line (NF-kB-driven SEAP, absorbance at 600 nm). The assay is classed as cell-based. Also noted: host or cells: HEK-293 (HEK-Blue TLR2 reporter cell line). Conditions: HEK-Blue TLR2 reporter cells, agonist mode; average of all runs (Table 4). An outline of the steps: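 Read-out: SEAP colour change, A600, after overnight agonist exposure. Cells: HEK-293 overexpressing TLR2, NF-kB-SEAP reporter, ~40,000/well, plated 16-24 h prior.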
Consider `CCCCCCNC(=O)[C@H]1CN(C(c2ccc(C(=O)N3C[C@@H](C(=O)N[C@H]4C[C@@H]4c4ccccc4)[C@H](C(=O)N[C@H]4C[C@@H]4c4ccccc4)C3)cc2)C(F)(F)F)CCN1C(=O)CCCCCC` (stereo partly drawn) [Compound 158, (3S,4S)—N3,N4-bis((1S,2R)-2-phenylcyclopropyl)-1-(4-(2,2,2-trifluoro-1-((R)-4-heptanoyl-3-(hexylcarbamoyl)piperazin-1-yl)ethyl)benzoyl)pyrrolidine-3,4-dicarboxamide], for which the concentration for a half-maximal effect (EC50) (as a rule, the concentration giving half of the maximal effect) was over 1 µM. The compound `CCCCCCN1C(=O)[C@H](CCCCC)NC(=O)[C@@H]1CNC(=O)c1ccc(C(=O)N2C[C@@H](C(=O)N[C@H]3C[C@@H]3c3ccccc3)[C@H](C(=O)N[C@H]3C[C@@H]3c3ccccc3)C2)cc1` [Compound 159] displayed an EC50 of 0.351 to 1 µM. Under `CCCCCCCC(=O)N1CCN(S(=O)(=O)c2ccc(C(=O)N3C[C@@H](C(=O)N[C@H]4C[C@@H]4c4ccccc4)[C@H](C(=O)N[C@H]4C[C@@H]4c4ccccc4)C3)cc2)C[C@@H]1C(=O)NCCCCCC` [Compound 161, (3S,4S)-1-(4-(((R)-3-(hexylcarbamoyl)-4-octanoylpiperazin-1-yl)sulfonyl)benzoyl)-N3,N4-bis((1S,2R)-2-phenylcyclopropyl)pyrrolidine-3,4-dicarboxamide] stands over 1 µM; under `CCCCCCCCCCCCCCNC(=O)[C@H]1CN(C(=O)c2ccc(C(=O)N3C[C@@H](C(=O)N[C@H]4C[C@@H]4c4ccccc4)[C@H](C(=O)N[C@H]4C[C@@H]4c4ccccc4)C3)cc2)CCN1C(C)=O` [Compound 163, (3S,4S)-1-(4-((R)-4-acetyl-3-(tetradecylcarbamoyl)piperazine-1-carbonyl)benzoyl)-N3,N4-bis((1S,2R)-2-phenylcyclopropyl)pyrrolidine-3,4-dicarboxamide], 0.351 to 1 µM. With `CCCCCCCCCCCCCCNC(=O)[C@@H]1CN(C(=O)c2cccc(C(=O)N3C[C@@H](C(=O)N[C@H]4C[C@@H]4c4ccccc4)[C@H](C(=O)N[C@H]4C[C@@H]4c4ccccc4)C3)c2)CCN1C(C)=O` [Compound 164, (3S,4S)-1-(3-((S)-4-acetyl-3-(tetradecylcarbamoyl)piperazine-1-carbonyl)benzoyl)-N3,N4-bis ((1S,2R)-2-phenylcyclopropyl) pyrrolidine-3,4-dicarboxamide] the figure was over 1 µM; with `CCCCCCCCCCCCCCC(=O)NC1CCN(S(=O)(=O)c2ccc(C(=O)N3C[C@@H](C(=O)N[C@H]4C[C@@H]4c4ccccc4)[C@H](C(=O)N[C@H]4C[C@@H]4c4ccccc4)C3)cc2)CC1` [Compound 165, (3S,4S)-1-(4-((4-pentadecanamidopiperidin-1-yl)sulfonyl)benzoyl)-N3,N4-bis((1S,2R)-2-phenylcyclopropyl)pyrrolidine-3,4-dicarboxamide], over 1 µM. With `CCCCCCCCCCCCCCC(=O)NC1CCN(C(=O)c2cccc(C(=O)N3C[C@@H](C(=O)N[C@H]4C[C@@H]4c4ccccc4)[C@H](C(=O)N[C@H]4C[C@@H]4c4ccccc4)C3)c2)CC1` [Compound 166, (3S,4S)-1-(3-(4-pentadecanamidopiperidine-1-carbonyl)benzoyl)-N3,N4-bis((1S,2R)-2-phenylcyclopropyl)pyrrolidine-3,4-dicarboxamide] the figure was over 1 µM; with `CCCCCCCCN1C(=O)N(Cc2ccc(C(=O)N3C[C@@H](C(=O)N[C@H]4C[C@@H]4c4ccccc4)[C@H](C(=O)N[C@H]4C[C@@H]4c4ccccc4)C3)cc2)C[C@H]1C(=O)NCCCCCC` [Compound 167, (3S,4S)-1-(4-(((S)-4-(hexylcarbamoyl)-3-octyl-2-oxoimidazolidin-1-yl)methyl)benzoyl)-N3,N4-bis((1S,2R)-2-phenylcyclopropyl)pyrrolidine-3,4-dicarboxamide], 0.0001 to 0.05 µM. For `CCCCCCCCN1C(=O)N(Cc2ccc(C(=O)N3C[C@@H](C(=O)N[C@H]4C[C@@H]4c4ccccc4)[C@H](C(=O)N[C@H]4C[C@@H]4c4ccccc4)C3)cc2)C[C@@H]1C(=O)NCCCCCC` [Compound 168, (3S,4S)-1-(4-(((R)-4-(hexylcarbamoyl)-3-octyl-2-oxoimidazolidin-1-yl)methyl)benzoyl)-N3,N4-bis((1S,2R)-2-phenylcyclopropyl)pyrrolidine-3,4-dicarboxamide], the EC50 lay within 0.051 to 0.35 µM. Under `CCCCCCCCCCCCCCCN1C[C@H](NC(=O)c2ccc(C(=O)N3C[C@@H](C(=O)N[C@H]4C[C@@H]4c4ccccc4)[C@H](C(=O)N[C@H]4C[C@@H]4c4ccccc4)C3)cc2)CCC1=O` [Compound 169, (3S,4S)-1-(4-(((R)-6-oxo-1-pentadecylpiperidin-3-yl)carbamoyl)benzoyl)-N3,N4-bis((1S,2R)-2-phenylcyclopropyl)pyrrolidine-3,4-dicarboxamide] stands over 1 µM. Compound `CCCCCCCC(=O)N1CCN(S(=O)(=O)c2cccc(C(=O)N3C[C@@H](C(=O)N[C@H]4C[C@@H]4c4ccccc4)[C@H](C(=O)N[C@H]4C[C@@H]4c4ccccc4)C3)c2)C[C@H]1C(=O)NCCCCCC` [Compound 170, (3S,4S)-1-(3-(((S)-3-(hexylcarbamoyl)-4-octanoylpiperazin-1-yl)sulfonyl)benzoyl)-N3,N4-bis((1S,2R)-2-phenylcyclopropyl)pyrrolidine-3,4-dicarboxamide] had an EC50 of over 1 µM. Under `CCCCCCCC(=O)N1CCN(S(=O)(=O)c2cccc(C(=O)N3C[C@@H](C(=O)N[C@H]4C[C@@H]4c4ccccc4)[C@H](C(=O)N[C@H]4C[C@@H]4c4ccccc4)C3)c2)C[C@@H]1C(=O)NCCCCCC` [Compound 171, (3S,4S)-1-(3-(((R)-3-(hexylcarbamoyl)-4-octanoylpiperazin-1-yl)sulfonyl)benzoyl)-N3,N4-bis((1S,2R)-2-phenylcyclopropyl)pyrrolidine-3,4-dicarboxamide] stands over 1 µM. With `CCCCCCCCCCCCCCNC(=O)[C@H]1CN(C(=O)c2cccc(C(=O)N3C[C@@H](C(=O)N[C@H]4C[C@@H]4c4ccccc4)[C@H](C(=O)N[C@H]4C[C@@H]4c4ccccc4)C3)c2)CCN1C(C)=O` [Compound 172, (3S,4S)-1-(3-((R)-4-acetyl-3-(tetradecylcarbamoyl)piperazine-1-carbonyl)benzoyl)-N3,N4-bis((1S,2R)-2-phenylcyclopropyl)pyrrolidine-3,4-dicarboxamide] the figure was over 1 µM; with `CCCCCCCC(=O)N[C@@H](CNC(=O)c1ccc(C(=O)N2C[C@@H](C(=O)N[C@H]3C[C@@H]3c3ccccc3)[C@H](C(=O)N[C@H]3C[C@@H]3c3ccccc3)C2)cc1)C(=O)NCCCCCC` [Compound 173, (3S,4S)-1-(4-(((S)-3-(hexylamino)-2-octanamido-3-oxopropyl)carbamoyl)benzoyl)-N3,N4-bis((1S,2R)-2-phenylcyclopropyl)pyrrolidine-3,4-dicarboxamide], 0.0001 to 0.05 µM; with `CCCCCCCCN1CC(C(=O)NCCCCCC)CN(Cc2ccc(C(=O)N3C[C@@H](C(=O)N[C@H]4C[C@@H]4c4ccccc4)[C@H](C(=O)N[C@H]4C[C@@H]4c4ccccc4)C3)cc2)C1=O` (stereo partly drawn) [Compound 178, (3S,4S)-1-(4-((5-(hexylcarbamoyl)-3-octyl-2-oxotetrahydropyrimidin-1 (2H)-yl)methyl)benzoyl)-N3,N4-bis((1S,2R)-2-phenylcyclopropyl)pyrrolidine-3,4-dicarboxamide], 0.351 to 1 µM. Under `CCCCCCCCCCCCCCNC(=O)C1COC(=O)N(Cc2ccc(C(=O)N3C[C@@H](C(=O)N[C@H]4C[C@@H]4c4ccccc4)[C@H](C(=O)N[C@H]4C[C@@H]4c4ccccc4)C3)cc2)C1` (stereo partly drawn) [Compound 179] stands over 1 µM. With `CCCCCCCCCCCCCCCN1C[C@@H](NC(=O)c2ccc(C(=O)N3C[C@@H](C(=O)N[C@H]4C[C@@H]4c4ccccc4)[C@H](C(=O)N[C@H]4C[C@@H]4c4ccccc4)C3)cc2)CCC1=O` [Compound 180, (3S,4S)-1-(4-(((S)-6-oxo-1-pentadecylpiperidin-3-yl)carbamoyl)benzoyl)-N3,N4-bis((1S,2R)-2-phenylcyclopropyl)pyrrolidine-3,4-dicarboxamide], the EC50 was over 1 µM. Compound `CO[C@H]1CN(C(=O)c2ccc(C(=O)N3C[C@@H](C(=O)N[C@H]4C[C@@H]4c4ccccc4)[C@H](C(=O)N[C@H]4C[C@@H]4c4ccccc4)C3)cc2)C[C@@H]1NC(=O)NCCc1ccc(F)cc1` [Compound 182, (3S,4S)-1-(4-((3S,4S)-3-(3-(4-fluorophenethyl)ureido)-4-methoxypyrrolidine-1-carbonyl)benzoyl)-N3,N4-bis((1S,2R)-2-phenylcyclopropyl)pyrrolidine-3,4-dicarboxamide] returned an EC50 of over 1 µM. `CO[C@H]1CN(C(=O)c2ccc(C(=O)N3C[C@@H](C(=O)N[C@H]4C[C@@H]4c4ccccc4)[C@H](C(=O)N[C@H]4C[C@@H]4c4ccccc4)C3)cc2)C[C@@H]1NC(=O)NCc1ccc(F)cc1` [Compound 183, (3S,4S)-1-(4-((3S,4S)-3-(3-(4-fluorobenzyl)ureido)-4-methoxypyrrolidine-1-carbonyl)benzoyl)-N3,N4-bis((1S,2R)-2-phenylcyclopropyl)pyrrolidine-3,4-dicarboxamide] came in with an EC50 of 0.051 to 0.35 µM. With `CCCCCCNC(=O)[C@H](CNC(=O)c1ccc(C(=O)N2C[C@@H](C(=O)N[C@H]3C[C@@H]3c3ccccc3)[C@H](C(=O)N[C@H]3C[C@@H]3c3ccccc3)C2)cc1)NC(=O)NCc1ccc(F)cc1` [Compound 186, (3S,4S)-1-(4-(((S)-2-(3-(4-fluorobenzyl)ureido)-3-(hexylamino)-3-oxopropyl)carbamoyl)benzoyl)-N^3,N^4-bis((1S,2R)-2-phenylcyclopropyl) pyrrolidine-3,4-dicarboxamide] the figure was 0.0001 to 0.05 µM; with `CCCCCCCCCCCCCCNC(=O)[C@H]1CN(S(=O)(=O)c2cccc(C(=O)N3C[C@@H](C(=O)N[C@H]4C[C@@H]4c4ccccc4)[C@H](C(=O)N[C@H]4C[C@@H]4c4ccccc4)C3)c2)CCN1C(C)=O` [Compound 192, (3S,4S)-1-(3-(((R)-4-acetyl-3-(tetradecylcarbamoyl)piperazin-1-yl)sulfonyl)benzoyl)-N3,N4-bis((1S,2R)-2-phenylcyclopropyl)pyrrolidine-3,4-dicarboxamide], 0.351 to 1 µM.

The values are drawn from patent US11951094B2, “TLR2 modulator compounds, pharmaceutical compositions and uses thereof” (Axial Therapeutics, Inc., priority 2020, dated 2024).
